From patent publication US20240228488A1 (TAKEDA PHARMACEUTICAL COMPANY LIMITED, priority 2021, published 2024) come the findings set out here.

Structures are written as SMILES.

This assay deals with human activated kallikrein enzyme (Homo sapiens, UniProt P03952). Put plainly: Plasma kallikrein inhibition, fluorogenic PFR-AMC substrate, 500 pM activated kallikrein format. It counts as biochemical. The note with it: 500 pM activated kallikrein, 300 uM PFR-AMC, 30 min preincubation, 10 min reaction; read-out: Primary Dose Response Assay: Average EC50. In a few lines: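 High-enzyme format of the fluorogenic peptide assay, with EC50 taken from AMC signal: 500 pM activated kallikrein, 300 uM Pro-Phe-Arg-AMC, 30 min compound preincubation and 10 min reaction, all at room temperature, pH 7.5.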
human activated kallikrein enzyme, sequence (P03952 391-638 limits assumed): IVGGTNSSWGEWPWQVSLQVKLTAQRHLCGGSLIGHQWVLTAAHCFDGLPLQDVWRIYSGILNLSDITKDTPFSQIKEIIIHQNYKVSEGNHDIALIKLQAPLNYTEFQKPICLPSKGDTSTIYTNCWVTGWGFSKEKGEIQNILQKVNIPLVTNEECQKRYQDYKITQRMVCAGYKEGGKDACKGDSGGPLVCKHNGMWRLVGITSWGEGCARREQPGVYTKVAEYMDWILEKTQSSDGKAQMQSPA
human activated kallikrein enzyme, sequence (P03952 20-390 partner limits assumed): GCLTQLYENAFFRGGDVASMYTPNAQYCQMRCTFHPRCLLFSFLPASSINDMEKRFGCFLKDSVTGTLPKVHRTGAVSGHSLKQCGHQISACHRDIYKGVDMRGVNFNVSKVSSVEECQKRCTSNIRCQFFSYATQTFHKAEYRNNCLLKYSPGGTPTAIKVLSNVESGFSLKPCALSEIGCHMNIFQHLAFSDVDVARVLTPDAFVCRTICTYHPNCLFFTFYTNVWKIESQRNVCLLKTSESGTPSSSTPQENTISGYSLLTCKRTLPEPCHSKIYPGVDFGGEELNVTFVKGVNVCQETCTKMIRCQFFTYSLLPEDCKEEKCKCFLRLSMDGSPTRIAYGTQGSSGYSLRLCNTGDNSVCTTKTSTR
As to `N#Cc1cc(Cl)sc1[C@H]1C[C@@H]1C(=O)Nc1cc(NCc2cn3cc(C4CC4)ccc3n2)ncn1` (racemic) [Example I-179, rac-(1S*,2S*)-2-(5-chloro-3-cyanothiophen-2-yl)-N-(6-(((6-cyclopropylimidazo[1,2-a]pyridin-2-yl)methyl)amino)pyrimidin-4-yl)cyclopropane-1-carboxamide], the EC50 fell in the range of 100 to 1000 nM.
Next, `O=C(Nc1cc(NCc2cn3cc(C4CC4)ccc3n2)ncn1)[C@H]1[C@H](CO)[C@@H]1c1cccc(Cl)c1` (racemic) [Example I-180, rac-(1R*,2S*,3R*)-2-(3-chlorophenyl)-N-(6-(((6-cyclopropylimidazo[1,2-a]pyridin-2-yl)methyl)amino)pyrimidin-4-yl)-3-(hydroxymethyl)cyclopropane-1-carboxamide]: 10 to 100 nM.
As for `COc1ccc(=O)n([C@H]2C[C@@H]2C(=O)Nc2cc(NCc3cn4cc(C5CC5)ccc4n3)ncn2)c1` (racemic) [Example I-181, rac-(1S*,2S*)-N-(6-(((6-cyclopropylimidazo[1,2-a]pyridin-2-yl)methyl)amino)pyrimidin-4-yl)-2-(5-methoxy-2-oxopyridin-1(2H)-yl)cyclopropane-1-carboxamide], the EC50 is above 6000 nM.
Take `COc1cc([C@H]2C[C@@H]2C(=O)Nc2cc(NCc3cn4cc(C5CC5)ccc4n3)ncn2)cc(NC(=O)OC(C)(C)C)n1` (racemic) [Example I-182, rac-tert-butyl (4-((1S*,2S*)-2-((6-(((6-cyclopropylimidazo[1,2-a]pyridin-2-yl)methyl)amino)pyrimidin-4-yl)carbamoyl)cyclopropyl)-6-methoxypyridin-2-yl)carbamate]: the EC50 is above 6000 nM.
Then `O=C(Nc1cc(NCc2cn3cc(C4CC4)ccc3n2)ncn1)[C@@H]1C[C@]12CCc1ccc(Cl)cc12` (racemic) [Example I-183, rac-(1R*,2R*)-6′-chloro-N-(6-(((6-cyclopropylimidazo[1,2-a]pyridin-2-yl)methyl)amino)pyrimidin-4-yl)-2′,3′-dihydrospiro[cyclopropane-1,1′-indene]-2-carboxamide], with 10 to 100 nM; and `O=C(Nc1cc(NCc2cn3cc(C4CC4)ccc3n2)ncn1)[C@@]1(F)C[C@@H]1c1cccc(Cl)c1` (racemic) [Example I-184, rac-(1S*,2S*)-2-(3-chlorophenyl)-N-(6-(((6-cyclopropylimidazo[1,2-a]pyridin-2-yl)methyl)amino)pyrimidin-4-yl)-1-fluorocyclopropane-1-carboxamide], with 10 to 100 nM.
Then `O=C(Nc1cc(NCc2cn3cc(C4CC4)ccc3n2)ncn1)[C@H]1C[C@@H]1c1ccc(Cl)s1` (racemic) [Example I-185, rac-(1S*,2S*)-2-(5-chlorothiophen-2-yl)-N-(6-(((6-cyclopropylimidazo[1,2-a]pyridin-2-yl)methyl)amino)pyrimidin-4-yl)cyclopropane-1-carboxamide], with 100 to 1000 nM; and `O=C(Nc1cc(NCc2cn3cc(C4CC4)ccc3n2)ncn1)[C@H]1C[C@@H]1c1cc(Cl)cs1` (racemic) [Example I-186, rac-(1S*,2S*)-2-(4-chlorothiophen-2-yl)-N-(6-(((6-cyclopropylimidazo[1,2-a]pyridin-2-yl)methyl)amino)pyrimidin-4-yl)cyclopropane-1-carboxamide], with 10 to 100 nM; and `COc1cc([C@H]2C[C@@H]2C(=O)Nc2cc(NCc3cn4cc(C5CC5)ccc4n3)ncn2)cc(Cl)n1` (racemic) [Example I-187, rac-(1S*,2S*)-2-(2-chloro-6-methoxypyridin-4-yl)-N-(6-(((6-cyclopropylimidazo[1,2-a]pyridin-2-yl)methyl)amino)pyrimidin-4-yl)cyclopropane-1-carboxamide], with above 6000 nM.
Next, `CC(C)(C)OC(=O)Nc1ccc([C@H]2C[C@@H]2C(=O)Nc2cc(NCc3cn4cc(C5CC5)ccc4n3)ncn2)cc1Cl` (racemic) [Example I-188, rac-tert-butyl (2-chloro-4-((1S*,2S*)-2-((6-(((6-cyclopropylimidazo[1,2-a]pyridin-2-yl)methyl)amino)pyrimidin-4-yl)carbamoyl)cyclopropyl)phenyl)carbamate]: above 6000 nM; `CC(C)(C)OC(=O)Nc1cc(Cl)cc([C@H]2C[C@@H]2C(=O)Nc2cc(NCc3cn4cc(C5CC5)ccc4n3)ncn2)c1` (racemic) [Example I-189, rac-tert-butyl (3-chloro-5-((1S*,2S*)-2-((6-(((6-cyclopropylimidazo[1,2-a]pyridin-2-yl)methyl)amino)pyrimidin-4-yl)carbamoyl)cyclopropyl)phenyl)carbamate]: above 6000 nM.
As for `O=C(Nc1cc(NCc2cn3cc(C4CC4)ccc3n2)ncn1)[C@H]1C[C@@H]1c1cccc(Cl)c1[N+](=O)[O-]` (racemic) [Example I-190, rac-(1S*,2S*)-2-(3-chloro-2-nitrophenyl)-N-(6-(((6-cyclopropylimidazo[1,2-a]pyridin-2-yl)methyl)amino)pyrimidin-4-yl)cyclopropane-1-carboxamide], the EC50 is above 6000 nM.
Next, `O=C(Nc1cc(NCc2cn3cc(C4CC4)ccc3n2)ncn1)[C@H]1C[C@@H]1c1n[nH]c2ccc(Cl)cc12` (racemic) [Example I-191, rac-(1S*,2S*)-2-(5-chloro-1H-indazol-3-yl)-N-(6-(((6-cyclopropylimidazo[1,2-a]pyridin-2-yl)methyl)amino)pyrimidin-4-yl)cyclopropane-1-carboxamide]: above 6000 nM; `COc1ccnc([C@H]2C[C@@H]2C(=O)Nc2cc(NCc3cn4cc(C5CC5)ccc4n3)ncn2)c1` (racemic) [Example I-204, rac-(1S*,2S*)-N-(6-(((6-cyclopropylimidazo[1,2-a]pyridin-2-yl)methyl)amino)pyrimidin-4-yl)-2-(4-methoxypyridin-2-yl)cyclopropane-1-carboxamide]: 100 to 1000 nM.
With `COc1ccc(C#N)c([C@H]2C[C@@H]2C(=O)Nc2cc(NCc3cn4cc(C5CC5)ccc4n3)ccn2)c1` (racemic) [Example I-206, rac-(1S*,2S*)-2-(2-cyano-5-methoxyphenyl)-N-(4-(((6-cyclopropylimidazo[1,2-a]pyridin-2-yl)methyl)amino)pyridin-2-yl)cyclopropane-1-carboxamide], the EC50 was in the range of 10 to 100 nM.
Next, `O=C(Nc1cc(NCc2cn3cc(C4CC4)ccc3n2)ccn1)[C@H]1C[C@@H]1c1cc(Cl)ncn1` (racemic) [Example I-210, rac-(1S*,2S*)-2-(6-chloropyrimidin-4-yl)-N-(4-(((6-cyclopropylimidazo[1,2-a]pyridin-2-yl)methyl)amino)pyridin-2-yl)cyclopropane-1-carboxamide]: 100 to 1000 nM.
Next, `O=C(Nc1cc(NCc2cn3cc(C4CC4)ccc3n2)ccn1)[C@H]1C[C@@H]1c1cc(Cl)cnn1` (racemic) [Example I-211, rac-(1S*,2S*)-2-(5-chloropyridazin-3-yl)-N-(4-(((6-cyclopropylimidazo[1,2-a]pyridin-2-yl)methyl)amino)pyridin-2-yl)cyclopropane-1-carboxamide]: 10 to 100 nM; `N#Cc1cc(Cl)sc1[C@H]1C[C@@H]1C(=O)Nc1cc(NCc2cn3cc(C4CC4)ccc3n2)ccn1` (racemic) [Example I-212, rac-(1S*,2S*)-2-(5-chloro-3-cyanothiophen-2-yl)-N-(4-(((6-cyclopropylimidazo[1,2-a]pyridin-2-yl)methyl)amino)pyridin-2-yl)cyclopropane-1-carboxamide]: 1 to 10 nM; `O=C(Nc1cc(NCc2cn3cc(C4CC4)ccc3n2)ccn1)[C@H]1[C@H](CO)[C@@H]1c1cccc(Cl)c1` (racemic) [Example I-213, rac-(1R*,2S*,3R*)-2-(3-chlorophenyl)-N-(4-(((6-cyclopropylimidazo[1,2-a]pyridin-2-yl)methyl)amino)pyridin-2-yl)-3-(hydroxymethyl)cyclopropane-1-carboxamide]: 1 to 10 nM.
Next, `COc1ccnc([C@H]2C[C@@H]2C(=O)Nc2cc(NCc3cn4cc(C5CC5)ccc4n3)ccn2)c1` (racemic) [Example I-214, rac-(1S*,2S*)-N-(4-(((6-cyclopropylimidazo[1,2-a]pyridin-2-yl)methyl)amino)pyridin-2-yl)-2-(4-methoxypyridin-2-yl)cyclopropane-1-carboxamide]: 1 to 10 nM; `COc1cc([C@H]2C[C@@H]2C(=O)Nc2cc(NCc3cn4cc(C5CC5)ccc4n3)ccn2)cc(NC(=O)OC(C)(C)C)n1` (racemic) [Example I-216, rac-tert-butyl (4-((1S*,2S*)-2-((4-(((6-cyclopropylimidazo[1,2-a]pyridin-2-yl)methyl)amino)pyridin-2-yl)carbamoyl)cyclopropyl)-6-methoxypyridin-2-yl)carbamate]: above 6000 nM.
Take `O=C(Nc1cc(NCc2cn3cc(C4CC4)ccc3n2)ccn1)[C@H]1C[C@@H]1c1ccc(Cl)s1` (racemic) [Example I-218, rac-(1S*,2S*)-2-(5-chlorothiophen-2-yl)-N-(4-(((6-cyclopropylimidazo[1,2-a]pyridin-2-yl)methyl)amino)pyridin-2-yl)cyclopropane-1-carboxamide]: the 50% effective concentration (EC50) is 10 to 100 nM.
Then `O=C(Nc1cc(NCc2cn3cc(C4CC4)ccc3n2)ccn1)[C@H]1C[C@@H]1c1ccnc(Cl)c1` (racemic) [Example I-220, rac-(1S*,2S*)-2-(2-chloropyridin-4-yl)-N-(4-(((6-cyclopropylimidazo[1,2-a]pyridin-2-yl)methyl)amino)pyridin-2-yl)cyclopropane-1-carboxamide], with 10 to 100 nM; and `O=C(Nc1cc(NCc2cn3cc(C4CC4)ccc3n2)ccn1)[C@H]1C[C@@H]1c1cncc(Cl)c1` (racemic) [Example I-221, rac-(1S*,2S*)-2-(5-chloropyridin-3-yl)-N-(4-(((6-cyclopropylimidazo[1,2-a]pyridin-2-yl)methyl)amino)pyridin-2-yl)cyclopropane-1-carboxamide], with 10 to 100 nM.

Broadly, the EC50 is the midpoint of the concentration-response curve.
